In US10695406B2, “Modulation of cellular stress using a B-cell oxidative and/or endoplasmic reticulum stress inhibitor and a targeting agent” (THE UNIVERSITY OF QUEENSLAND, priority 2014, dated 2020):

Columns and labels:
murine islets = experiment: Murine islets ex vivo: ER stress, gene expression, insulin and proinsulin secretion; format: cell-based, mice
Description: Healthy islets were cultured with 10 μg/mL tunicamycin or 5 μM thapsigargin±IL-22 for 6 hours. Alternatively the islets were cultured in the presence of ER stress-inducing cytokines±IL-22 for 24 hours. The cultures were then cultured consecutively for 30 minutes in 2.8 mM glucose, 20 mM glucose, or a combination of 20 mM glucose and 100 nM GLP-1.
(§1) All mice were housed in sterilized, filter-topped cages in a conventional clean facility. Six to eight week old C57BL/6 male mice were fed ad libitum on a high fat diet containing 46% of available energy as saturated fat, 34% carbohydrate, 20% protein (Speciality feeds, SF04-027). Or on normal chow containing less than 10% saturated fat (GOLDMIX, 126575). Cages of mice were randomly allocated to the experimental groups by random draw. Investigators were not blinded to treatment by there were no subjective assessments made.
(§2) Total insulin and proinsulin were measured in supernatant from islet cultures or in serum from mice using commercially obtained ELISA kits from MILLIPORE and MERCODIA, respectively. The molar insulin concentration was determined by subtracting the molar proinsulin concentration from molar total insulin, and then the serum proinsulin:insulin ratio was calculated.

[1] = tested on: mice with high fat diet-induced obesity (HFDIO); experiment: HFDIO Experiment 2: 22 weeks of diet, IL-22 for the last 30 days; format: in vivo, C57BL/6 male mice; conditions: for Body weight (% original) / Fasting blood glucose / Fasting serum insulin concentration / Fasting serum proinsulin concentration: HFDIO Experiment 2, 22 weeks on HFD
From the text: as §1, §2
From 18-22 weeks of diet, mice were treated (for 30 days) with 20 or 100 ng/g i.p. recombinant murine IL-22 twice weekly (R&D SYSTEMS) or 0.1 mg/mouse irrelevant isotype control antibody, sacrificed and sampled.
Fasted i.p. glucose tolerance tests (2 g/kg glucose) and insulin tolerance tests (0.25 U/kg insulin; Humalog, Lilly) were performed at the times indicated in the Figure Legends. […]

human pancreatic islets = experiment: Oxidative stress (ROS, NO) in cultured human pancreatic islets; format: cell-based; conditions: 50 ng/mL, 30 min prior exposure, 2 hours culture
Description: Human islets were recovered from organ donors and placed into overnight culture in DMEM with 2.8 mM glucose and 10% FCS. Islets were then washed and transferred into serum free DMEM for 6 h prior to experiments to assess induction of oxidative stress. Islets were then cultured for 2-24 hours in the presence of 50 ng/mL of IFNγ, IL-1β, IL-23 or IL-24, or the free fatty acid palmitate at 0.5 mM, with or without exposure to 50 ng/mL IL-22 beginning 30 min prior to the introduction of the stress inducing cytokines or lipids. To test whether endogenous IL-22 affects human islet physiology the islets were treated for 2-24 hours with an anti-IL-22R1 (receptor) antibody at 10 μg/mL. ROS and nitrite were measured using the DCFDA and Greiss assays as described above for murine islets, and quantitative RT-PCR used to assess gene expression.

[2] = Clearance of IL-22 and IL-22 fusion proteins from serum; format: in vivo, C57BL/6 mice; conditions: after administration to mice
Description: Targeting to IL-22 to pancreas: Non-obese male C57BL/6 at 6-8 weeks of age. Each IL-22-GLP-1R ligand fusion protein or hIL-22 was administered i.p. at 256 ng/g of IL-22 and the molar equivalents for the individual fusion proteins (n=3 per regimen). IL-22-ScaB1 was administered at […]. Control mice received a PBS control i.p. injection only.
Serum concentrations of IL-22 and the IL-22-GLP-1R ligand fusion proteins were determined using a human IL-22 double-determinant ELISA (Biolegend; 434505) against a standard curve for the individual fusion proteins.

[3] = tested on: mice with high fat diet-induced obesity (HFDIO); experiment: HFDIO Experiment 1: high fat diet induced obesity, treated last 3 weeks of 16; format: in vivo, C57BL/6 male mice
From the text: as §1, §2
From […] of the diet, mice were treated with 20 ng/g i.p. recombinant murine IL-22 twice weekly (R&D SYSTEMS), 3 μg/g anti-IL-23 weekly (ELI-LILLY), 0.1 mg/mouse anti-IL-24 weekly (PROTEIN TECH), or 0.5 mg/mouse irrelevant isotype control antibody, sacrificed and sampled.
Fasted i.p. glucose tolerance tests (2 g/kg glucose) and insulin tolerance tests (0.25 U/kg insulin; Humalog, Lilly) were performed at the times indicated in the Figure Legends.
Pancreatic tissue was fixed in 10% neutral buffered formalin and processed using standard histological techniques. Standard immunohistochemical and immunofluorescent staining methods were used to determine the presence of Grp78, insulin, glucagon, IL-22R1, proinsulin and ATF6-GFP.
The area in pixels/mm^2 was determined for Grp78 and insulin (immunofluorescence) and proinsulin (immunohistochemisty) in the core of β-cell rich area of 3-4 islets per mouse (n=6-10 mice) using IMAGEJ software version 1.45s. Live cell imagine in MIN6N8 cells was carries out at 37° C. in 5% CO2 in a chamber using an OLYMPUS XCELLENCE RT microscope.

[4] = healthy islets, co-treatment with ER stress agents
[5] = HFDIO Experiment 1, 16 weeks on HFD
[6] = HFDIO Experiment 1, 16 weeks on NCD

IL-22: interleukin-22; recombinant murine IL-22 (R&D SYSTEMS) in the mouse experiments
MIP2α mRNA (murine islets; HFDIO islets cultured 24 h in 2.8 mM glucose ± 50 ng/mL IL-22): reduced substantially | acute islet ER stress (Xbp1-splicing, Hspa5 mRNA) (murine islets; [4]): suppresses the acute islet oxidative stress-driven ER stress | glucose and glucose plus GLP-1 stimulated insulin secretion (murine islets; [4]): restores appropriate glucose and glucose plus GLP-1 stimulated insulin secretion | proinsulin secretion (murine islets; islets from HFDIO mice): proinsulin secretion ceased | insulin hyper-secretion (GSIS) (murine islets; islets from HFDIO mice, after culture): returned to levels in non-obese islets | ER stress, antioxidant gene expression and Nos2 (murine islets; islets from HFDIO mice, culture 24 hours): reduced ER stress, increased antioxidant gene expression and decreased Nos2 | decrease of serum proinsulin ([1]; 100 ng/g): 97% | islet ER stress (Xbp1 splicing) ([1]; 100 ng/g): Xbp1 splicing indistinguishable from normal chow islets | body weight during treatment ([1]; 20 or 100 ng/g, last 30 days of 22-week HFD): progressively decreased | Body weight (% original) ([1]; 20 ng/g): 188 ± 13 % original | Fasting blood glucose ([1]; 20 ng/g): 11.3 ± 0.5 mmol/L | Fasting serum insulin concentration ([1]; 20 ng/g): 0.7 ± 0.4 ng/mL | Fasting serum proinsulin concentration ([1]; 20 ng/g): 14.1 ± 2.9 pmol/L | Body weight (% original) ([1]; 100 ng/g): 189 ± 17 % original | Fasting blood glucose ([1]; 100 ng/g): 10.6 ± 1.3 mmol/L | Fasting serum insulin concentration ([1]; 100 ng/g): 0.5 ± 0.3 ng/mL | Fasting serum proinsulin concentration ([1]; 100 ng/g): 4.7 ± 1.8 pmol/L | time until random fed blood glucose decreased to levels of normal chow fed mice ([1]; both doses (20 and 100 ng/g)): ≤ 7 days | insulin resistance in ITT ([1]; day 16 of therapy): no or modest improvement in insulin resistance | serum total insulin during IPGTT ([1]; day 25): complete suppression of fasting hyperinsulinemia and normalization of GSIS | glycemic control in IPGTT ([1]; day 25 of therapy): glycemic control indistinguishable from control non-obese mice | insulin resistance in ITT ([1]; day 29, both doses): insulin resistance had decreased | serum proinsulin:insulin ratio ([1]; end of treatment): normalization of the serum proinsulin:insulin ratio | proinsulin secretion by islets ex vivo ([1]; islets from HFD mice treated in vivo, glucose/GLP-1): reduced in a dose-dependent manner | islet expression of anti-oxidant genes and Nos2 ([1]; islets from HFDIO mice treated in vivo): further increased expression of anti-oxidant genes and suppressed Nos2 | insulin secretion in response to glucose by islets ex vivo ([1]; islets from obese mice treated for 30 days): correction of insulin hyper-secretion in response to glucose | pathology in skin, intestine or liver ([1]; up to 100 μg/kg for up to 30 days): no pathology was observed in the skin, intestine or liver | production of ROS and NO induced by IFN-γ, IL-1β, IL-23, IL-24 and palmitate (human pancreatic islets): protected human islets from the production of ROS and NO | time to almost complete clearance from serum [2]: ≤ 60 min | body weight during treatment ([3]; HFD): progressively lost weight during treatment without changing food consumption | hepatic Hspa5 mRNA ([3]; HFD, after 3 weeks treatment): decreased substantially | fasted serum proinsulin:insulin ratio ([3]; HFD, end of treatment): decreased the fasted serum proinsulin:insulin ratio | reduction of serum proinsulin ([3]; HFD, fasted, end of treatment): 92% | decrease of islet proinsulin ([3]; HFD, immunostaining): 64% | reduction of Grp78 in the β-cell region of islets ([3]; HFD, immunostaining): 75% | β-cell insulin stores ([3]; HFD, immunostaining): returned to levels in non-obese mice | reduction of the increase in IPGTT area under the curve (AUC glucose) ([3]; HFD, two weeks of treatment): 82% | Body weight (% original) [3, 5]: 129 ± 9 % original | Fasting blood glucose [3, 5]: 8.8 ± 0.9 mmol/L | Fasting serum insulin concentration [3, 5]: 1.1 ± 0.5 ng/mL | Fasting serum proinsulin concentration [3, 5]: 9.5 ± 3.8 pmol/L | Body weight (% original) [3, 6]: 118 ± 3 % original | Fasting blood glucose [3, 6]: 8.9 ± 0.8 mmol/L | Fasting serum insulin concentration [3, 6]: 0.5 ± 0.1 ng/mL | Fasting serum proinsulin concentration [3, 6]: Not detectable
